Measured values taken from patent publication US20100125081A1, “NEW COMPOUNDS 574” (ASTRAZENECA AB, priority 2008, published 2010).
Counter-ions that a name gives are not always drawn.

biological target: T1, human β-Secretase (Homo sapiens, UniProt P56817); test: TR-FRET assay (β-secretase enzyme, sBACE-Fc); format: biochemical; conditions: soluble human β-secretase (AA 1-460) Fc fusion, substrate (Europium)CEVNLDAEFK(Qsy7) 100 nM, pH 4.5; unit inferred, nM taken
T1 construct: soluble part of the human β-Secretase (AA 1-AA 460); Fc domain of IgG1 (C); made in house
T1 sequence (P56817 22-460): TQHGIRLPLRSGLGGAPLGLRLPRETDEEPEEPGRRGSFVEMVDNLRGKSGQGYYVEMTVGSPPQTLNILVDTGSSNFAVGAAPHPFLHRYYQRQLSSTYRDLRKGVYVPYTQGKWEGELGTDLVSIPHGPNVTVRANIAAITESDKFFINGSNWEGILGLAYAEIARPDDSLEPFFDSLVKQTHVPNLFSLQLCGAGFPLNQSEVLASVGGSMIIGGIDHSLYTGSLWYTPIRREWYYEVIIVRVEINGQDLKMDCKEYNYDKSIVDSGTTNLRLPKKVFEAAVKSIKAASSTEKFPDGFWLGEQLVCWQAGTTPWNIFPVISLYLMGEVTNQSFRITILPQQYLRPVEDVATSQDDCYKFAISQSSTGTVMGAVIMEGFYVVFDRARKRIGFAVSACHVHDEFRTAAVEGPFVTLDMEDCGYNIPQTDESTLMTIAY
Experimental: The β-secretase enzyme used in the TR-FRET is prepared as follows:
The cDNA for the soluble part of the human β-Secretase (AA 1-AA 460) was cloned using the ASP2-Fc10-1-IRES-GFP-neoK mammalian expression vector. The gene was fused to the Fc domain of IgG1 (affinity tag) and stably cloned into HEK 293 cells.
The enzyme (truncated form) was diluted to 6 μg/mL (stock 1.3 mg/mL) and the substrate (Europium)CEVNLDAEFK(Qsy7) to 200 nM (stock 120 μM) in reaction buffer (NaAcetate, chaps, triton x-100, EDTA pH4.5). The robotic systems Biomek FX and Velocity 11 were used for all liquid handling and the enzyme and substrate solutions were kept on ice until they were placed in the robotic system. Enzyme (9 μl) was added to the plate then 1 μl of compound in dimethylsulphoxide was added, mixed and pre-incubated for 10 minutes. Substrate (10 μl) was then added, mixed and the reaction proceeded for 15 minutes at room temperature. The reaction was stopped with the addition of Stop solution (7 μl, NaAcetate, pH 9). The fluorescence of the product was measured on a Victor II plate reader with an excitation wavelength of 340 nm and an emission wavelength of 615 nm. The assay was performed in a Costar 384 well round bottom, low volume, non-binding surface plate (Corning #3676). The final concentration of the enzyme was 2.7 μg/ml; the final concentration of substrate was 100 nM (Km of ˜250 nM). The dimethylsulphoxide control, instead of test compound, defined the 100% activity level and 0% activity was defined by wells lacking enzyme (replaced with reaction buffer).

In order of rising IC50:
1. NC1=NC(c2cccc(-c3cncnc3)c2)(c2ccc(OC(F)F)c(C3CC3)c2)c2cccnc21 (centres unmarked) [Example 9, 5-(3-Cyclopropyl-4-(difluoromethoxy)phenyl)-5-(3-(pyrimidin-5-yl)phenyl)-5H-pyrrolo[3,4-b]pyridin-7-amine acetic acid]  33 nM
2. COc1c(C)cc(C2(c3cccc(-c4cncnc4)c3)N=C(N)c3ncccc32)cc1F (centres unmarked) [Example 36, 5-(3-Fluoro-4-methoxy-5-methylphenyl)-5-(3-(pyrimidin-5-yl)phenyl)-5H-pyrrolo[3,4-b]pyridin-7-amine]  41 nM
3. Cc1cc(C2(c3cccc(-c4cncnc4)c3)N=C(N)c3ncccc32)cc(C)c1OC(F)F (centres unmarked) [Example 12, 5-(4-(Difluoromethoxy)-3,5-dimethylphenyl)-5-(3-(pyrimidin-5-yl)phenyl)-5H-pyrrolo[3,4-b]pyridin-7-amine]  47 nM
4. Cc1cc(C2(c3cccc(C#N)c3)N=C(N)c3ncccc32)cc(C2CC2)c1OC(F)F (centres unmarked) [Example 32, 3-[7-Amino-5-(3-cyclopropyl-4-difluoromethoxy-5-methyl-phenyl)-5H-pyrrolo[3,4-b]pyridin-5-yl]-benzonitrile]  61 nM
5. Cc1cc(C2(c3cccc(-c4cnccn4)c3)N=C(N)c3ncccc32)cc(C)c1OCF (centres unmarked) [Example 27, 5-(4-(Fluoromethoxy)-3,5-dimethylphenyl)-5-(3-(pyrazin-2-yl)phenyl)-5H-pyrrolo[3,4-b]pyridin-7-amine]  90 nM
6. COc1c(C)cc(C2(c3cccc(-c4cnccn4)c3)N=C(N)c3ncccc32)cc1F (centres unmarked) [Example 15, 5-(3-Fluoro-4-methoxy-5-methylphenyl)-5-(3-(pyrazin-2-yl)phenyl)-5H-pyrrolo[3,4-b]pyridin-7-amine trifluoroacetic acid salt]  96 nM
7. Cc1cc(C2(c3ccnc(-c4cncnc4)c3)N=C(N)c3ncccc32)cc(C2CC2)c1OC(F)F (centres unmarked) [Example 30, 5-(3-Cyclopropyl-4-difluoromethoxy-5-methyl-phenyl)-5-(2-pyrimidin-5-yl-pyridin-4-yl)-5H-pyrrolo[3,4-b]pyridin-7-ylamine]  119 nM
8. COc1c(C)cc(C2(c3cccc(-c4cncnc4)c3)N=C(N)c3ncccc32)nc1C (centres unmarked) [Example 35, 5-(5-Methoxy-4,6-dimethyl-pyridin-2-yl)-5-(3-pyrimidin-5-yl-phenyl)-5H-pyrrolo[3,4-b]pyridin-7-ylamine]  125 nM
9. COc1c(F)cc(C2(c3ccc(F)c(-c4cncnc4)c3)N=C(N)c3ncccc32)cc1F (centres unmarked) [Example 6, 5-(3,5-Difluoro-4-methoxyphenyl)-5-(4-fluoro-3-(pyrimidin-5-yl)phenyl)-5H-pyrrolo[3,4-b]pyridin-7-amine]  156 nM
10. NC1=NC(c2cccc(-c3cncnc3)c2)(c2ccnc(C(F)(F)F)c2)c2cccnc21 (single isomer, unassigned) [25, Isomer 2]  176 nM
11. NC1=NC(c2cccc(-c3cncnc3)c2)(c2ccc(OC(F)F)c(F)c2)c2cccnc21 (centres unmarked) [Example 18, 5-(4-(Difluoromethoxy)-3-fluorophenyl)-5-(3-(pyrimidin-5-yl)phenyl)-5H-pyrrolo[3,4-b]pyridin-7-amine]  204 nM
12. COc1ccc(F)c(-c2cc(C3(c4ccnc(C(F)(F)F)c4)N=C(N)c4ncccc43)ccc2O)c1 (centres unmarked) [Example 37, 5-(7-Amino-5-(2-(trifluoromethyl)pyridin-4-yl)-5H-pyrrolo[3,4-b]pyridin-5-yl)-2′-fluoro-5′-methoxybiphenyl-2-ol]  206 nM
13. COc1ccc(C2(c3cccc(-c4cncnc4)c3)N=C(N)c3ncccc32)cc1C1CC1 (centres unmarked) [Example 33, 5-(3-Cyclopropyl-4-methoxy-phenyl)-5-(3-pyrimidin-5-yl-phenyl)-5H-pyrrolo[3,4-b]pyridin-7-ylamine]  222 nM
14. NC1=NC(c2cccc(-c3cncc(Cl)c3)c2)(c2ccnc(C(F)(F)F)c2)c2cccnc21 (centres unmarked) [Example 21, 5-(3-(5-Chloropyridin-3-yl)phenyl)-5-(2-(trifluoromethyl)pyridin-4-yl)-5H-pyrrolo[3,4-b]pyridin-7-amine]  239 nM
15. COc1ccc(C2(c3cccc(-c4cncnc4)c3)N=C(N)c3ncccc32)cc1Cl (centres unmarked) [Example 7, 5-(3-Chloro-4-methoxyphenyl)-5-(3-(pyrimidin-5-yl)phenyl)-5H-pyrrolo[3,4-b]pyridin-7-amine]  248 nM
16. NC1=NC(c2cccc(-c3cccc(Cl)c3)c2)(c2ccnc(C(F)(F)F)c2)c2cccnc21 (centres unmarked) [Example 1, 5-(3′-Chlorobiphenyl-3-yl)-5-(2-(trifluoromethyl)pyridin-4-yl)-5H-pyrrolo[3,4-b]pyridin-7-amine]  400 nM
17. NC1=NC(c2cccc(-c3cccnc3)c2)(c2ccnc(C(F)(F)F)c2)c2cccnc21 (centres unmarked) [Example 3, 5-(3-(Pyridin-3-yl)phenyl)-5-(2-(trifluoromethyl)pyridin-4-yl)-5H-pyrrolo[3,4-b]pyridin-7-amine]  560 nM
18. Cc1cc(C2(c3cccc(-c4cncnc4)c3)N=C(N)c3ncccc32)cc(C)c1F (centres unmarked) [Example 14, 5-(4-Fluoro-3,5-dimethylphenyl)-5-(3-(pyrimidin-5-yl)phenyl)-5H-pyrrolo[3,4-b]pyridin-7-amine]  593 nM
19. COc1ccc(C2(c3cccc(-c4cnccn4)c3)N=C(N)c3ncccc32)cc1Cl (centres unmarked) [Example 8, 5-(3-Chloro-4-methoxyphenyl)-5-(3-(pyrazin-2-yl)phenyl)-5H-pyrrolo[3,4-b]pyridin-7-amine]  610 nM
20. Cc1cc(C2(c3cccc(-c4cncnc4)c3)N=C(N)c3ncc(Cl)cc32)ccn1 (centres unmarked) [Example 10, 3-Chloro-5-(2-methylpyridin-4-yl)-5-(3-(pyrimidin-5-yl)phenyl)-5H-pyrrolo[3,4-b]pyridin-7-amine]  639 nM
21. Cc1cc(C2(c3ccccc3)N=C(N)c3ncccc32)cc(C2CC2)c1OC(F)F (centres unmarked) [Example 31, 5-[3-Cyclopropyl-4-(difluoromethoxy)-5-methyl-phenyl]-5-phenyl-pyrrolo[3,4-b]pyridin-7-amine]  815 nM
22. NC1=NC(c2cccc(-c3cncnc3)c2)(c2ccnc(OC=C(F)F)c2)c2cccnc21 (centres unmarked) [Example 17, 5-(2-(2,2-Difluorovinyloxy)pyridin-4-yl)-5-(3-(pyrimidin-5-yl)phenyl)-5H-pyrrolo[3,4-b]pyridin-7-amine 0.2 acetic acid]  1140 nM
23. NC1=NC(c2cccc(-c3cncnc3)c2)(c2ccnc(OCC(F)(F)F)c2)c2cccnc21 (centres unmarked) [Example 16, 5-(3-(Pyrimidin-5-yl)phenyl)-5-(2-(2,2,2-trifluoroethoxy)pyridin-4-yl)-5H-pyrrolo[3,4-b]pyridin-7-amine 0.2 acetic acid]  1600 nM
24. N#Cc1ccnc(-c2cccc(C3(c4ccnc(C(F)(F)F)c4)N=C(N)c4ncccc43)c2)c1 (centres unmarked) [Example 22, 2-(3-(7-Amino-5-(2-(trifluoromethyl)pyridin-4-yl)-5H-pyrrolo[3,4-b]pyridin-5-yl)phenyl)isonicotinonitrile]  1800 nM
25. COc1ccc(C2(c3cccc(-c4cncnc4)c3)N=C(N)c3ncc(C)cc32)cc1 (centres unmarked) [Example 11, 5-(4-Methoxyphenyl)-3-methyl-5-(3-(pyrimidin-5-yl)phenyl)-5H-pyrrolo[3,4-b]pyridin-7-amine]  2120 nM
26. Cc1cc(C2(c3cccc(-c4cncc(C#N)c4)c3)N=C(N)c3ncccc32)cc(C)n1 (centres unmarked) [Example 5, 5-(3-(7-Amino-5-(2,6-dimethylpyridin-4-yl)-5H-pyrrolo[3,4-b]pyridin-5-yl)phenyl)nicotinonitrile]  2400 nM
